Laboratory results published in PMC5329948, “Caspase vinyl sulfone small molecule inhibitors prevent axonal degeneration in human neurons and reverse cognitive impairment in Caspase-6-overexpressing mice” (Molecular Neurodegeneration, 2017).

Legend:
[1] = test system: Casp6 (mutant huntingtin cleavage); set-up: method as in PMID 25616965; conditions: read-out: IC50 against mutant huntingtin cleavage (FRET); cited from earlier work
[2] = test system: Casp6 (VEID-aminoluciferin cleavage); set-up: method as in PMID 25616965; conditions: read-out: inhibition of cleavage of VEID-aminoluciferin; cited from earlier work
Caspase-5 = test system: Caspase-5; set-up: method as in PMID 25616965; conditions: cited from earlier work
Caspase-3 = test system: Caspase-3; set-up: method as in PMID 9092497; conditions: read-out: Michaelis-Menten constant (Km) for Caspase-3; cited from earlier work
recombinant Casp6 = test system: recombinant Casp6; set-up: method as in PMID 9092497; conditions: read-out: Michaelis-Menten constant (Km) for recombinant Casp6; cited from earlier work
[3] = test system: APPWT-transfected primary human CNS neurons; assay: Neuritic beading/degeneration in APPWT-transfected primary human neurons; type: cell-based; conditions: NWL 100 μM, Z-VEID-fmk 5 μM
Description: Immunofluorescence on human neuron cultures: Primary human neurons were pre-treated 2 h and serum-deprived in the presence of 100 μM NWL-117, 100 μM NWL-154, or 5 μM Z-VEID-fmk (Biomol, Plymouth meeting, PA, USA) for 24 h. Following treatment, human neurons were washed once with warm PBS, fixed for 20 min at room temperature with 4% paraformaldehyde (Sigma, Oakville, ON, CA)/4% sucrose (BioRad, Mississauga, ON, CA) for TubΔCasp6 or 2% formaldehyde (Thermo Fisher Scientific, Waltham, MA, USA)/0.2% glutaraldehyde (Sigma, Oakville, ON, CA) for pBudEGFP or pBudEGFP/APP^WT-transfected neurons, incubated in permeabilization buffer (0.1% Triton X-100, 0.1 sodium citrate) for 1 min on ice, washed with PBS, blocked for 20 min at room temperature with 10% goat serum (Sigma, Oakville, ON, CA), and incubated with primary antibodies diluted in 10% goat serum in PBS overnight at 4 °C in a humid chamber. The glass coverslips were washed with PBS, and incubated with goat anti-rabbit secondary antibody coupled to Alexa 488 (Molecular Probes, Eugene, OR, USA) or Cy3 (GE Healthcare Life Sciences, Baie D’Urfe, QC, CA) and Hoechst 33342 (ImmunoChemistry, Bloomington, MN, USA) at 1 μg/mL for 2 h at room temperature. The coverslips were washed with PBS and rinsed in Milli-Q water before mounting in fluoromount (Dako, Burlington, ON, CA). Images were acquired by fluorescence microscopy and quantified using the ImageJ software (NIH, Bethesda, MD, USA) for TubΔCasp6 and manually counted for transfected EGFP(+)-neurons. Time lapse-imaging by live fluorescence microscopy: Primary human neurons were transfected with gold beads coated with pBudEGFP or pBudEGFP/APP^WT using a Helios Gene gun (BioRad, Mississauga, ON, CA). Briefly, cells were pre-treated with 100 μM NWL inhibitors or 5 μM Z-VEID-fmk for 2 h. The media was removed and the neurons were shot at 100 psi. The media was quickly replaced with the inhibitors present. The plasmid was expressed for 16 h before setting up the fluorescence microscope (Nikon Eclipse Ti) to acquire 20 images per condition every hour for 72 h at 37 °C with 5% CO2. The images were analyzed by counting the total number of neurons (50–100 neurons per condition per independent experiment), and the number of beaded, swollen soma, and healthy neurons. In addition, the time at which cells beaded was noted. Phase contrast microscopy: HCT116 cells, plated at a density of 1×10^5 cells/well and human neurons, plated at a density of 6×10^6 cells/well on poly-L-lysine were treated with PBS, 100 μM NWL-117, 100 μM NWL-154, or 2 μM staurosporine (Biomol, Plymouth meeting, PA, USA) for 24 h. Images were acquired with the Nikon Eclipse Ti microscope and the NIS-Elements (Version 3.10) software.

mammals = conditions: fmk moiety metabolized into fluorocitrate; cited from earlier work

ED11: 24 amino acid peptide (GRKKRRQRRRPPQSSEIVLDGTDN) containing HIV TAT-peptide and huntingtin sequences; Casp6 inhibitor
IC50 [1]: 0.0121 µM | IC50 [2]: > 10 µM | Caspase-5 activity on the FRET assay (Caspase-5): significant enhancement

VEID: Val-Glu-Ile-Asp peptide substrate sequence preferred by Casp6 (printed: Val-Glu-Ile-Asp)
Km (Caspase-3): 250 µM | Km (recombinant Casp6): 30 µM

benzyloxycarbonyl-Val-Glu-Ile-Asp-fmk [Z-VEID-fmk, reference compound]
neuritic beading ([3]; APPWT/EGFP co-expression, 48 h): prevented neuritic beading | percentage of beaded neurons, fold of EGFP-alone ([3]; live imaging 72 h, APPWT vehicle 1.52, EGFP-alone 1.00, mean ± SEM): 0.97 fold | toxicity to mammals (mammals): toxic to mammals
